Laboratory results published in patent publication US7112570B2, “GPE analogs” (Neuren Pharmaceuticals, Ltd., priority 2000, dated 2006).
Blank lines part the entries; values can stand above or below the substance they belong to. Ends that are not written are not given here. 3H = tritium label

What was measured:
[1] = rat, in vivo
Description: (§1) Tritiated GPE (Gly-[^3H]Pro-Glu, 1.6 ml, specific activity 50–60 Ci/mmol) obtained from Sibtech, Inc., USA was used in these experiments.
(§2) Adult Wistar rats (300 g) were prepared under halothane/O2 anaesthesia. The rats were randomly assigned to one of four groups: tritiated GPE, saline+0.1% BSA, tritiated GPE+non-tritiated GPE or tritiated proline. Rats in the tritiated GPE, tritiated proline and control groups were sacrificed at 30 min, 1 hr or 6 hrs after administration. Rats co-administered with both tritiated and non- tritiated GPE were sacrificed at 10 minutes after administration. For all groups, tissue was homogenized in Soluene® (a tissue solubilizer; Packard Bioscience Company, Meriden Conn.) and counted in a β counter.
(§3) Rats were injected with 10 million counts of tritiated GPE in 500 μl total (made up with 0.1% BSA in saline). Animals were sacrificed at 30 minutes, 1, 3 or 6 hrs. Tissue was homogenized in Soluene® and counted in a β counter.
(§4) Adult Wistar rats (300 g) were prepared under halothane/O2 anaesthesia. A guide cannula was placed on the dura 7.5 mm anterior from stereotaxic zero and 1.5 mm from midline on the right. One million counts of GPE and 600 μl of non-tritiated GPE were injected in 8 μl total volume (made up with 0.1% BSA in saline). Rats were sacrificed 30 minutes after administration. Tissue was homogenized in Soluene® and counted in a β counter.
(§5) Tritiated GPE, tritiated GPE+non-tritiated GPE, tritiated proline (Amersham) or tritiated proline+non-tritiated proline in vehicle (0.1M citrate buffer [pH6], diluted 10 times in 0.1% bovine serum albumin in 0.1M phosphate buffered saline [PBS] [pH7.3]) were then given by different routes of administration to injured and non-injured rats according to the following study design:
(§6) Cardiac administration was performed using a syringe. The syringe needle was placed into the left ventricle and one of the above four solutions was given.
(§7) IV administration was carried out by injecting one of the four solutions into the tail vein.
(§8) IP administration was performed by injecting one of the four solutions into the peritoneal cavity.
(§9) ICV administration was carried out according to the following procedure. The rats were lightly anaesthetized again using 0.15 ml Saffan™ (Pitman-Moore Ltd, NZ). The infusion of one of the four solutions was made into the right lateral ventricle guided by a metal cap fitted over the rat head using a modified technique originally described by Jirikowski (J Neuroscience Methods, 42: 115–118, 1992), in order to ensure correct placement of the infusion needle. One of the four solutions was administered in a single dose.
(§10) The rats were sacrificed using pentobarbital 10, 60 or 360 minutes after administration of either tritiated GPE or tritiated proline. […] Counts/minute/mg were made in the following tissues: kidney, blood, adrenal glands, liver, lung, testicle, heart, muscle, spinal cord and brain. HPLC was used in order to check that the particles counted were either tritiated GPE or tritiated proline.

[2] = system: ^3H-Me-GPE binding sites in the rat brain; assay: ^3H-Me-GPE binding autoradiography on rat tissue sections; conditions: excess (10 μM) of competitor
Description: After tritiation the reaction mixture was diluted in ammonium acetate buffer (0.05M, pH 5.5 with 20% v/v methanol, 10 ml) and purified using Accell CM- and QMA+Sep-Paks (Waters, Milford, Mass., USA) in series. After washing with the ammonium acetate buffer to remove reagents and byproducts (tritiated water and tritiated methanol), the CM- and QMA+cartridges were uncoupled and the ^3H-Me-GPE was eluted from the QMA cartridge with ammonium bicarbonate (0.3M, 6 ml). The eluted material was lyophilized twice to remove the bulk of the ammonium bicarbonate, dissolved in ethanol-water (1:19, 20 μl ) and aliquots stored at −70° C.
The following experimental protocol followed guidelines approved by the University of Auckland Animal Ethics Committee. Adult male Wistar rats were killed by decapitation and tissues immediately removed and stored at −80° C. Coronal sections (16 μm) were cut on a cryostat and mounted on gelatin-coated slides. Normal adult human postmortem brain (n=4) tissue was cut and mounted in a similar manner. […]

[3] = system: hypoxic-ischemic injury, hippocampal CA1/2 neurons; assay: Neuronal survival after hypoxic-ischemic injury, GPE administered peripherally; assay type: in vivo; conditions: rat, GPE intraperitoneally 2 hours after hypoxia, sacrificed 7 days after injury, FIG. 4
Description: This experiment involved treating rats with a control vehicle or GPE administered peripherally 2 hours after a focal CNS injury. […] The degree and length of hypoxia, the ambient temperature and humidity were defmed to standardize the degree of damage. The neuronal death is restricted to the side of the carotid ligation and is primarily in the hippocampus, dentate gyrus, striatum and lateral cortex of the ligated hemisphere. There is no neuronal loss in the contralateral hemisphere.
Specifically forty-nine 50–60 day old adult Wistar rats (280–310 g) were prepared under halothane/O2 anaesthesia. The right side carotid artery was ligated. The rats were allowed to recover for 1 hour and were then placed in an incubator with humidity 90±5% and temperature 31±0.5° C. for 1 hour before hypoxia. Oxygen concentration was reduced and maintained at 6±0.2% 02 for 10 minutes. […]
The rats were transcardially perfised with 0.9% saline followed by 4% paraformaldehyde, and the brains were removed and embedded in paraffin. […] Only cells with a morphology like live neurons were counted, while dead neurons or cells with morphology like glia were not included. […]
A coronal section (A-P 4.5 mm) was used for analysis of the hippocampus. All surviving neurons in the hippocampal CA1/2 region of the injured hemisphere were counted. Data were analysed with paired t-test and presented as mean±sem (standard error of the mean).

[4] = Tissue distribution / brain accumulation of tritiated GPE after cardiac, iv, ip or icv administration; conditions: rat
Description: as §1, §2, §3, §4, §5, §6, §7, §8, §9, §10

Substance: Gly-[^3H]Pro-Glu (Gly-Pro(3H)-Glu; UniProt P05019 49-51, looked up, fragment) [tritiated GPE]
- amount in the brain relative to the blood [1]: increases over time
- time-point at which there was the most tritiated GPE in the brain [1]: 60 min

- blockade of ^3H-Me-GPE binding in the CA1-2 region [2]: blocked
Substance: N-methyl-GPE

Substance: Gly-Pro-Glu [GPE]
- neuronal survival in the hippocampus after an hypoxic-ischemic injury [3]: increases neuronal survival
- uptake in the brain of rats with an hypoxic-ischemic brain injury ([4]; ICV administration): selectively taken up on the injured side of the brain
- displacement when tritiated and non-tritiated GPE were administered together ([4]; cardiac administration, supported by ICV administration): the only displacement of GPE occurred in the brain
- ability to pass through the blood-brain-barrier ([4]; including in the absence of neural insult): pass through the blood-brain-barrier
- amount in the brain compared to the corresponding time-points after iv and cardiac injection ([4]; ip administration): increased
